# Laboratory results as given in patent publication US5140025A, “Thienotricylene for the treatment of bronchial diseases” (BYK Gulden Lomberg Chemische Fabrik GmbH, priority 1987, dated 1992).
# Like-named read-outs stand apart in the source and are kept apart here.
# Columns and labels:
# [1] = tested on: acetylcholine-induced bronchospasm; experiment: Acetylcholine-induced bronchospasm in anaesthetised, spontaneously breathing guinea pigs, intravenous administration; type: in vivo, guinea pig (Pirbright White); conditions: for Mean bronchospasmolytic activity, percentage increase of Vmaxe vs control spasm / Mean bronchospasmolytic activity, percentage increase of tidal volume (TV) vs control spasm: 0-60 min; for Mean bronchospasmolytic activity, percentage increase of Vmaxe vs control spasm / Mean bronchospasmolytic activity, percentage increase of tidal volume (TV) vs control spasm / Bronchospasmolytic activity, percentage increase of Vmaxe vs control spasm / Bronchospasmolytic activity, percentage increase of tidal volume (TV) vs control spasm: x±SEM, N=10; for ED50: Cavia porcellus, iv, 1 h, mean activity 0-60 min; for Bronchospasmolytic activity, percentage increase of Vmaxe vs control spasm / Bronchospasmolytic activity, percentage increase of tidal volume (TV) vs control spasm: at 60 min
# Text: Effect of Intravenously Administered Telenzepine on Acetylchline-Induced Bronchospasms in Anaesthetised, Spontaneously Breathing Guinea Pigs
# Method for simultaneously recording pharmacodynamic or toxic effects on interior sensitive receptors and the respiration of guinea pigs (U. Kilian, E. Muller, E. Ch. Dittmann and J. Hamacher, Arzneim.-Forsch. 28, 1699-1708, 1978).
# Pirbright White, Interfauna (Tuttlingen), 350-450 g, male.
# (§1) Ethylurethane 1.2 g/kg i.p. as 12.5% aqueous solution.
# Pneumotachogram: Maximum flow velocities of the respiratory air during expiration (Vmaxe, "peak flow"), tidal volume (TV).
# Acetylcholine as spasmogen, 0.2-0.3 μmol/kg i.v., dissolved in 0.9% NaCl.
# -10 min control spasm, 0 min administration of substance, +2, +10, +20, +30, +60 min test spasms.
# Determination of the effect of telenzepine on the parameters (mean and standard error of mean, n=10) and calculation of the bronchospasmolytic activity from this as percentage inhibition of the acetylcholine-induced decrease of Vmaxe and TV by means of time/effect curves. Computation of a dose/response curve of the mean bronchospasmolytic activity during the observation time (0-60 min) from the areas under the time/effect curves and reading of 1 h ED50 values. Determination of a dose/response curve of the bronchospasmolytic activity at time 60 min and reading ED50 values.
# [2] = tested on: acetylcholine-induced changes in lung function parameters; experiment: Acetylcholine-induced changes in lung function parameters in anaesthetised guinea pigs, intratracheal administration (whole-body plethysmography); type: in vivo, guinea pig (Pirbright White); conditions: for Bronchospasmolytic activity, percentage increase of compliance vs control / Bronchospasmolytic activity, percentage increase of conductance vs control: x±SEM, N=10; for ED50: Cavia porcellus
# Text: Effect of Intratracheally (i.t.) Administered (±)-Telenzepine on Acetylcholine-Induced Changes in Lung Function Parameters in Anaesthetised Guinea Pigs
# Small-anmimal whole-body plethysmography in anaesthetised guinea pigs (method according to U. Heinreich and A. Wilhelm, in bga-Schriften 5/84, pp 255-266, MMW-Verlag, 1984).
# Pirbright White, Interfauna (Tuttlingen). 290-350 g, male.
# as §1
# Plethysmographic measurement of maximum flow velocities of the respiratory air and tidal volume using tracheal catheter inserted through the natural passages; and measurement of intrapleural pressure using oesophageal catheter inserted through the natural passages.
# 0.001, 0.01, 0.1 and 1 μmol/kg (±)-telenzepine i.t., dissolved in 0.1 ml/kg 0.9% NaCl+0.1% Tween 80, acetylcholine as spasmogen administered by inhalation of ultrasonically nebulized 0.18% acetylcholine/0.9% NaCl solution.
# -10 min control spasm, 0 min administration of substance, +5 and +30 min test spasms.
# Computation of conductance (=capacity of airways to conduct air, equivalent to reciprocal of airway resistance) and of compliance (=distensibility of lung) from the recorded data, according to the method of Amdur and Mead (Amer. J. Physiol., 192, 364-368, 1958), before and at peak spasm, and determination of differences; calculation of percentage inhibition of the spasm after administration of the substance, in comparison with the control spasm; calculation of the dose/response curve and ED50 values of this bronchospasmolytic activity.
# [3] = target: M1 receptor (ganglionic); experiment: Receptor affinity, electrically stimulated rabbit vas deferens in organ bath; conditions: vas deferens of the rabbit, agonist McN-A-343, Schild slope normalised to 1.00
# Experimental: Isometric contractions (HSE force transducer, K-30; tilt and zones, BD-9 chart recorder) of isolated seminal duct sections of rabbits (male, white New Zealand rabbits, 2.5-3.5 kg) were recorded in an organ bath (10 ml, 31° C., gassing with carbogen, initial tension of the organs 0.75 g) under electrical stimultion (HSE stimulator; hook-shaped Pt electrode 1 cm below the water surface of the bath; 30 V, 0.5 ms, 0.05 Hz). After an equilibration time of 30 minutes, cumulative dose/response curves of McN-A-343 (10^-7 -2×10^-6 M) were recorded simultaneously on 8 organ sections in each case (control curves), using the technique described by van Rossum (1963). After 3 control curves, a fixed concentration of the agonist (for example 5×10^-7, 10^-6, 3×10^-6, 10^-5 or 3×10^-5 M) per organ section was applied and, after stabilisation of the effect, increasing concentrations of the agonist to be tested were added. The nutrient solution used had the following composition (mM): NaCl 118, KCl 4.7, CaCl2 ·2H2 O 2.5, MgSO4 ·7H2 O 0.6, KH2 PO 4 1.2, NaHCO3 25.0 and glucose 11.1. In order to block α2 -adrenoreceptors, the nutrient solution additionally contained 10^-6 M yohimbine.
# The Tyrode nutrient solution used had the following composition (mM): NaCl 130, KCl 2.0, CaCl2 ·2H2 O 1.8, MgCl2 ·6H2 O 0.98, NaHCO3 12.0, NaH2 PO4 0.42 and glucose monohydrate 5.6. pA2 values (-log of the molar dissociation constants of the competitive antagonist-receptor complex) were determined by linear regression using the Schild plot: pA2 =-log [B/(x-1)], (Arunlakshana and Schild, 1959).
smiles,measurement,setting,value
"Cc1scc2c1N(C(=O)CN1CCN(C)CC1)c1ccccc1NC2=O (racemic) [(±)-telenzepine, 4,9-dihydro-3-methyl-4-[(4-methyl-1-piperazinyl)-acetyl]-10H-thieno[3,4-b][1,5]benzodiazepin-10-one]","Mean bronchospasmolytic activity, percentage increase of Vmaxe vs control spasm",[1]; 0.03 μmol/kg i.v.,7 ± 3%
same,"Mean bronchospasmolytic activity, percentage increase of tidal volume (TV) vs control spasm",[1]; 0.03 μmol/kg i.v.,7 ± 3%
same,"Mean bronchospasmolytic activity, percentage increase of Vmaxe vs control spasm",[1]; 0.05 μmol/kg i.v.,22 ± 3%
same,"Mean bronchospasmolytic activity, percentage increase of tidal volume (TV) vs control spasm",[1]; 0.05 μmol/kg i.v.,26 ± 4%
same,"Mean bronchospasmolytic activity, percentage increase of Vmaxe vs control spasm",[1]; 0.1 μmol/kg i.v.,61 ± 8%
same,"Mean bronchospasmolytic activity, percentage increase of tidal volume (TV) vs control spasm",[1]; 0.1 μmol/kg i.v.,68 ± 9%
same,"Mean bronchospasmolytic activity, percentage increase of Vmaxe vs control spasm",[1]; 1 μmol/kg i.v.,81 ± 4%
same,"Mean bronchospasmolytic activity, percentage increase of tidal volume (TV) vs control spasm",[1]; 1 μmol/kg i.v.,84 ± 4%
same,"Mean bronchospasmolytic activity, percentage increase of Vmaxe vs control spasm",[1]; 5 μmol/kg i.v.,75 ± 3%
same,"Mean bronchospasmolytic activity, percentage increase of tidal volume (TV) vs control spasm",[1]; 5 μmol/kg i.v.,86 ± 2%
same,ED50,"[1]; read-out: ED50 of mean bronchospasmolytic activity, TV",0.07 µmol/kg
same,ED50,"[1]; read-out: ED50 of mean bronchospasmolytic activity, Vmaxe",0.08 µmol/kg
same,"Bronchospasmolytic activity, percentage increase of Vmaxe vs control spasm",[1]; 0.03 μmol/kg i.v.,11 ± 4%
same,"Bronchospasmolytic activity, percentage increase of tidal volume (TV) vs control spasm",[1]; 0.03 μmol/kg i.v.,12 ± 6%
same,"Bronchospasmolytic activity, percentage increase of Vmaxe vs control spasm",[1]; 0.05 μmol/kg i.v.,25 ± 3%
same,"Bronchospasmolytic activity, percentage increase of tidal volume (TV) vs control spasm",[1]; 0.05 μmol/kg i.v.,32 ± 5%
same,"Bronchospasmolytic activity, percentage increase of Vmaxe vs control spasm",[1]; 0.1 μmol/kg i.v.,70 ± 9%
same,"Bronchospasmolytic activity, percentage increase of tidal volume (TV) vs control spasm",[1]; 0.1 μmol/kg i.v.,78 ± 11%
same,"Bronchospasmolytic activity, percentage increase of Vmaxe vs control spasm",[1]; 1 μmol/kg i.v.,82 ± 5%
same,"Bronchospasmolytic activity, percentage increase of tidal volume (TV) vs control spasm",[1]; 1 μmol/kg i.v.,85 ± 5%
same,"Bronchospasmolytic activity, percentage increase of Vmaxe vs control spasm",[1]; 5 μmol/kg i.v.,80 ± 4%
same,"Bronchospasmolytic activity, percentage increase of tidal volume (TV) vs control spasm",[1]; 5 μmol/kg i.v.,91 ± 3%
same,dose range of dose- and time-dependent inhibition of acetylcholine-induced bronchospasm,[1]; i.v.,0.03-1 μmol/kg i.v.
same,persistence of maximum effect,"[1]; i.v., observation period",≥ 1 h
same,"Bronchospasmolytic activity, percentage increase of compliance vs control","[2]; 5 min, 0.001 μmol/kg i.t.",5 ± 1%
same,"Bronchospasmolytic activity, percentage increase of conductance vs control","[2]; 5 min, 0.001 μmol/kg i.t.",12 ± 3%
same,"Bronchospasmolytic activity, percentage increase of compliance vs control","[2]; 5 min, 0.01 μmol/kg i.t.",50 ± 9%
same,"Bronchospasmolytic activity, percentage increase of conductance vs control","[2]; 5 min, 0.01 μmol/kg i.t.",62 ± 10%
same,"Bronchospasmolytic activity, percentage increase of compliance vs control","[2]; 5 min, 0.1 μmol/kg i.t.",34 ± 10%
same,"Bronchospasmolytic activity, percentage increase of conductance vs control","[2]; 5 min, 0.1 μmol/kg i.t.",46 ± 10%
same,"Bronchospasmolytic activity, percentage increase of compliance vs control","[2]; 5 min, 1 μmol/kg i.t.",57 ± 9%
same,"Bronchospasmolytic activity, percentage increase of conductance vs control","[2]; 5 min, 1 μmol/kg i.t.",65 ± 9%
same,"Bronchospasmolytic activity, percentage increase of compliance vs control","[2]; 30 min, 0.001 μmol/kg i.t.",13 ± 3%
same,"Bronchospasmolytic activity, percentage increase of conductance vs control","[2]; 30 min, 0.001 μmol/kg i.t.",20 ± 5%
same,"Bronchospasmolytic activity, percentage increase of compliance vs control","[2]; 30 min, 0.01 μmol/kg i.t.",49 ± 9%
same,"Bronchospasmolytic activity, percentage increase of conductance vs control","[2]; 30 min, 0.01 μmol/kg i.t.",51 ± 9%
same,"Bronchospasmolytic activity, percentage increase of compliance vs control","[2]; 30 min, 0.1 μmol/kg i.t.",51 ± 9%
same,"Bronchospasmolytic activity, percentage increase of conductance vs control","[2]; 30 min, 0.1 μmol/kg i.t.",54 ± 7%
same,"Bronchospasmolytic activity, percentage increase of compliance vs control","[2]; 30 min, 1 μmol/kg i.t.",89 ± 4%
same,"Bronchospasmolytic activity, percentage increase of conductance vs control","[2]; 30 min, 1 μmol/kg i.t.",84 ± 2%
same,ED50,"[2]; 5 min, 5 min p.a., read-out: ED50 of bronchospasmolytic activity, compliance",0.3 µmol/kg
same,ED50,"[2]; 5 min, 5 min p.a., read-out: ED50 of bronchospasmolytic activity, conductance",0.05 µmol/kg
same,ED50,"[2]; 0.5 h, 30 min p.a., read-out: ED50 of bronchospasmolytic activity, compliance",0.03 µmol/kg
same,ED50,"[2]; 0.5 h, 30 min p.a., read-out: ED50 of bronchospasmolytic activity, conductance",0.03 µmol/kg
same,dose range of time- and dose-dependent inhibition of acetylcholine-induced reduction of conductance and compliance,[2]; i.t.,0.001-1 μmol/kg i.t.
same,efficacy at 30 min compared with 5 min after administration,[2]; i.t.,more pronounced at 30 min than at 5 min
same,"pA2 ± SEM, M1 receptor (ganglionic)",[3],8.86 ± 0.06
